Laboratory results taken from PMC12250347, “Calcium-dependent pathway as a primary cause of hypoxic RGC damage in monkey retinal explants” (PLOS One, 2025).

Tests used:
[1] = molecular target: T1, human erythrocyte calpain 1 (Homo sapiens, UniProt P07384); test: Calpain-Glo Protease Assay; assay type: biochemical; conditions: 5 mM CaCl2, 10 min, room temperature; mean of two experiments
T1 construct: human erythrocyte calpain 1 (MilliporeSigma); purchased MilliporeSigma; host or cells: human erythrocytes
T1 sequence (P07384 1-714): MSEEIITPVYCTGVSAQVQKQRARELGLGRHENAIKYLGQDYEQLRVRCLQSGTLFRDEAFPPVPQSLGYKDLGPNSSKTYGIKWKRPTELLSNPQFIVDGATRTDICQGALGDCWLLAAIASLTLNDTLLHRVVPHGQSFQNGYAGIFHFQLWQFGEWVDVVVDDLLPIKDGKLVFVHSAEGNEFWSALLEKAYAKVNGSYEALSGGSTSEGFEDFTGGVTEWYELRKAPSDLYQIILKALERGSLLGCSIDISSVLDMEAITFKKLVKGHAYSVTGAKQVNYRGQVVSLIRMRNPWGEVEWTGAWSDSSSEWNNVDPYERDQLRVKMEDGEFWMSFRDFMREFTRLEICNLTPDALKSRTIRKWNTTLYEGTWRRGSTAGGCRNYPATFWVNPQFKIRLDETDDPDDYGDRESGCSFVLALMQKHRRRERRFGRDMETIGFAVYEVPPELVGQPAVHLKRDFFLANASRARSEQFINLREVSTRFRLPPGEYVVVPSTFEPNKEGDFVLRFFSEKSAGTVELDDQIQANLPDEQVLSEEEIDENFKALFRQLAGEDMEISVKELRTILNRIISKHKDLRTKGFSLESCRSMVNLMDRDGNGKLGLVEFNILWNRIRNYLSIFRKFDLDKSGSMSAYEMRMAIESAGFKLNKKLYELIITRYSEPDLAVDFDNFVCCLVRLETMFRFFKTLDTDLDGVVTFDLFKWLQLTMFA
T1 sequence (P04632 1-268 partner): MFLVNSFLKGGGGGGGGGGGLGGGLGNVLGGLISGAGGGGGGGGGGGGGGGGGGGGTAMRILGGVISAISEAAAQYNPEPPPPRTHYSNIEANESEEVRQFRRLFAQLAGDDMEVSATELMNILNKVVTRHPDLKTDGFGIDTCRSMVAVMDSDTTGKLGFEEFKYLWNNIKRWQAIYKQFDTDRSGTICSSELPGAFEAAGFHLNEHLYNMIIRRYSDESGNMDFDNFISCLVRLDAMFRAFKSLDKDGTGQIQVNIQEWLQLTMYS
Method: (§1) For measurement of inhibitory activities against calpains in vitro, Calpain-Glo Protease Assay (Promega; Madison, WI, USA) was performed using human erythrocyte calpain 1 (MilliporeSigma) and purified porcine calpain 2. Briefly, 24 µL of each calpain diluted with 20 mM Tris-HCl (pH 7.4), 1 µL of each inhibitor, and 25 µL of reaction buffer including CaCl2 in a 96-well plate was incubated for 10 min at room temperature. The final concentration of CaCl2 in the reaction solution was 5 mM. The luminescence was measured using a microplate reader (GloMax Discover System; Promega). IC50 values from two independent experiments were averaged.

[2] = test system: purified porcine calpain 2; test: Calpain-Glo Protease Assay; assay type: biochemical; conditions: 5 mM CaCl2, 10 min, room temperature; mean of two experiments
Excerpt: The porcine kidney was obtained from DART Co., Ltd. as part of a program aimed at the effective utilization of livestock by-products in Hokkaido, Japan. The procurement process followed ethical guidelines from Livestock Industry Bureau MAFF-J (ministry of agriculture, forestry and fisheries of Japan) for farm animal use, ensuring compliance with relevant regulations. Two porcine kidneys were rapidly frozen after removal, trimmed free of excess tissue or renal pelvis, and cut into small pieces (approximately 2 × 2 cm) before they thawed. About 250 g of these pieces were homogenized in 1200 mL of ice-cold 20 mM Tris-HCl (pH 8.0) with 5 mM ethylenediaminetetraacetic acid (EDTA), 0.1% 2-mercaptoethanol (2-ME), 0.1 mg/mL Pefabloc SC (MilliporeSigma, Burlington, MA, USA), 40 µg/mL bestatin, and 4 µg/mL pepstatin in a Waring blender HGBSS (Waring; Stamford, CT, USA) at 19,000 rpm using several bursts of 10 sec each with 20 sec cooling periods between each burst. The homogenate was centrifuged at 25,000 × g for 15 min at 4°C, and the supernatant was filtered through glass wool and a 5 µm filter (Merck) to remove floating lipids. The purification procedure was performed according to the method of Thompson and Goll with some minor modifications: the DEAE-cellulose and the DEAE-TSK ToyoPearl 650S columns were substituted with DEAE sepharose fast flow (Merck) and TSKgel DEAE-5PW (30) (Tosoh; Tokyo, Japan) columns, respectively. After purification, calpain-2 was dialyzed, and glycerol was added for freeze-thaw protection. The final buffer formulation was 20 mM imidazole, 5 mM 2-ME, 1 mM EDTA, 1 mM EGTA, and 20% glycerol.
as §1

CC(C)(F)C[C@H](N[C@@H](c1ccc(-c2ccc(S(C)(=O)=O)cc2)cc1)C(F)(F)F)C(=O)NC1(C#N)CC1 [Odanacatib]
IC50 [1]: 15.9 µM
IC50 Porcine Calpain 2 [2]: No effect

CCc1ccccc1NC(=O)CSC(=O)NNC(=O)[C@H](Cc1c[nH]c2ccccc12)NC(=O)OC(C)(C)C [SID26681509]
IC50 [1]: 81 µM
IC50 [2]: 93.2 µM

COCCOCCOC(=O)N[C@@H](CC(C)C)C(=O)N[C@@H](Cc1ccccc1)C(=O)C(=O)NC1CC1 [SNJ-1945]
IC50 [1]: 0.077 µM
IC50 [2]: 0.072 µM
